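Compound exposure: 48 hours, 5 concentrations, 96-well plates. At the GI50, growth is halved.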 Calls of active or inactive are those of the source. Cut-off read from the data, not from the text of the source: active = GI50 up to about 1.1 µM and inactive = higher.
Legend:
Assay in all cases: inhibition of tumour cell growth, NCI panel, 48 h
[1] = tested on: 786-0
[2] = tested on: A498
[3] = tested on: A549
[4] = tested on: ACHN
[5] = tested on: BT-549
[6] = tested on: CAKI-1
[7] = tested on: CCRF-CEM
[8] = tested on: COLO 205
[9] = tested on: DU-145
[10] = tested on: EKVX
[11] = tested on: HCC 2998
[12] = tested on: HCT-116
[13] = tested on: HCT-15
[14] = tested on: HL-60
[15] = tested on: HOP-62
[16] = tested on: HOP-92
[17] = tested on: HT-29
[18] = tested on: Hs-578T
[19] = tested on: IGROV-1
[20] = tested on: K562
[21] = tested on: KM12
[22] = tested on: LOX IMVI
[23] = tested on: M14
[24] = tested on: MCF7
[25] = tested on: MDA-MB-231
[26] = tested on: MDA-MB-435
[27] = tested on: MDA-N
[28] = tested on: MOLT-4
[29] = tested on: Malme-3M
[30] = tested on: NCI-H23
[31] = tested on: NCI-H460
[32] = tested on: NCI/ADR-RES
[33] = tested on: OVCAR-3
[34] = tested on: OVCAR-4
[35] = tested on: OVCAR-5
[36] = tested on: OVCAR-8
[37] = tested on: PC-3
[38] = tested on: RPMI-8226
[39] = tested on: RXF 393
[40] = tested on: SF-268
[41] = tested on: SF-295
[42] = tested on: SF-539
[43] = tested on: SK-MEL-28
[44] = tested on: SK-MEL-2
[45] = tested on: SK-MEL-5
[46] = tested on: SK-OV-3
[47] = tested on: SN12C
[48] = tested on: SNB-19
[49] = tested on: SNB-75
[50] = tested on: SR
[51] = tested on: SW-620
[52] = tested on: T47D
[53] = tested on: TK-10
[54] = tested on: U-251
[55] = tested on: UACC-257
[56] = tested on: UACC-62
[57] = tested on: UO-31
[58] = tested on: NCI-H226
[59] = tested on: NCI-H522

For `CC(=O)NC1C(OCc2ccccc2)OC(CO)C(O)C1OCC(=O)NC(C)C(=O)NC(CCC(=O)NCCCCCC(=O)Nc1ccc2c(c1)CN1C(=O)c3ccccc3C1=N2)C(N)=O` (stereo not given), the GI50 [1] was 82.8 µM (inactive), the GI50 [2] was > 100 µM (inactive) and the GI50 [3] was 72.8 µM (inactive). The GI50 [4] was 62.8 µM (inactive), the GI50 [5] was > 100 µM (inactive) and the GI50 [6] was > 100 µM (inactive). The GI50 [7] was 32.7 µM (inactive), the GI50 [8] was > 100 µM (inactive) and the GI50 [9] was > 100 µM (inactive). For the same compound, the GI50 [10] was > 100 µM (inactive), the GI50 [11] was 61.4 µM (inactive) and the GI50 [12] was 39.6 µM (inactive). The GI50 [13] was greater than 100 µM, the GI50 [14] was > 100 µM (inactive) and the GI50 [15] was 41 µM (inactive). For the same compound, the GI50 [16] was 25.3 µM (inactive), the GI50 [17] was > 100 µM (inactive) and the GI50 [18] was > 100 µM (inactive). For the same compound, the GI50 [19] was > 100 µM (inactive), the GI50 [20] was 45 µM (inactive) and the GI50 [21] was 34.5 µM (inactive). For the same compound, the GI50 [22] was 53.1 µM (inactive), the GI50 [23] was > 100 µM (inactive) and the GI50 [24] was 35.6 µM (inactive). For the same compound, the GI50 [25] was > 100 µM (inactive), the GI50 [26] was > 100 µM (inactive) and the GI50 [27] was > 100 µM (inactive). The GI50 [28] was 42.1 µM (inactive), the GI50 [29] was 78.3 µM (inactive) and the GI50 [30] was 67.5 µM (inactive). For the same compound, the GI50 [31] was 43.1 µM (inactive), the GI50 [32] was > 100 µM (inactive) and the GI50 [33] was > 100 µM (inactive). For the same compound, the GI50 [34] was > 100 µM (inactive), the GI50 [35] was > 100 µM (inactive) and the GI50 [36] was 49.5 µM (inactive). For the same compound, the GI50 [37] was 58.6 µM (inactive), the GI50 [38] was 38 µM (inactive) and the GI50 [39] was > 100 µM (inactive). For the same compound, the GI50 [40] was 63.8 µM (inactive), the GI50 [41] was 75.7 µM (inactive) and the GI50 [42] was > 100 µM (inactive). The GI50 [43] was > 100 µM (inactive), the GI50 [44] was > 100 µM (inactive) and the GI50 [45] was 75 µM (inactive). For the same compound, the GI50 [46] was > 100 µM (inactive), the GI50 [47] was 69.8 µM (inactive) and the GI50 [48] was 63.1 µM (inactive). For the same compound, the GI50 [49] was 49.8 µM (inactive), the GI50 [50] was 17.4 µM (inactive) and the GI50 [51] was 43.5 µM (inactive). The GI50 [52] was > 100 µM (inactive), the GI50 [53] was 30.3 µM (inactive) and the GI50 [54] was 48.3 µM (inactive). For the same compound, the GI50 [55] was > 100 µM (inactive), the GI50 [56] was 57.3 µM (inactive) and the GI50 [57] was > 100 µM (inactive).

For `O=C1/C(=C2/C(=O)N(c3ccccc3)c3ccccc32)Nc2ccccc21`, the GI50 [1] was 15 µM (inactive), the GI50 [2] was 24.5 µM (inactive) and the GI50 [3] was 37.2 µM (inactive). For the same compound, the GI50 [4] was 21.2 µM (inactive), the GI50 [5] was 45 µM (inactive) and the GI50 [6] was 45.5 µM (inactive). The GI50 [7] was 92.3 µM (inactive), the GI50 [8] was 24.7 µM (inactive) and the GI50 [9] was 27 µM (inactive). For the same compound, the GI50 [10] was 24.2 µM (inactive), the GI50 [11] was 32.3 µM (inactive) and the GI50 [12] was 36.6 µM (inactive). The GI50 [13] was 50 µM, the GI50 [15] was 31.8 µM (inactive) and the GI50 [16] was 25.9 µM (inactive). The GI50 [17] was 59 µM (inactive), the GI50 [18] was 58.2 µM (inactive) and the GI50 [19] was 19.8 µM (inactive). The GI50 [20] was 42.2 µM (inactive), the GI50 [21] was > 100 µM (inactive) and the GI50 [22] was 78.3 µM (inactive). For the same compound, the GI50 [23] was 38.1 µM (inactive), the GI50 [24] was 11.9 µM (inactive) and the GI50 [25] was 18.9 µM (inactive). The GI50 [26] was 66.8 µM (inactive), the GI50 [27] was > 100 µM (inactive) and the GI50 [28] was 35.2 µM (inactive). For the same compound, the GI50 [29] was 73.1 µM (inactive), the GI50 [58] was 27.9 µM (inactive) and the GI50 [30] was 63.5 µM (inactive). The GI50 [31] was 46.2 µM (inactive), the GI50 [59] was 66.5 µM (inactive) and the GI50 [32] was > 100 µM (inactive). For the same compound, the GI50 [33] was 52 µM (inactive), the GI50 [34] was 25.5 µM (inactive) and the GI50 [35] was 51.1 µM (inactive). The GI50 [36] was 47.8 µM (inactive), the GI50 [37] was 26.7 µM (inactive) and the GI50 [38] was > 100 µM (inactive). For the same compound, the GI50 [39] was 15 µM (inactive), the GI50 [40] was 36.4 µM (inactive) and the GI50 [41] was 48.4 µM (inactive). The GI50 [43] was > 100 µM (inactive), the GI50 [44] was 35.5 µM (inactive) and the GI50 [45] was 22.3 µM (inactive). The GI50 [46] was 43.6 µM (inactive), the GI50 [47] was 59.8 µM (inactive) and the GI50 [48] was 29.6 µM (inactive). The GI50 [49] was 14.9 µM (inactive), the GI50 [50] was 61.2 µM (inactive) and the GI50 [51] was 63.1 µM (inactive). The GI50 [52] was 0.571 µM (active), the GI50 [53] was 27 µM (inactive) and the GI50 [54] was 31.8 µM (inactive). The GI50 [55] was 37.4 µM (inactive), the GI50 [56] was > 100 µM (inactive) and the GI50 [57] was 43.7 µM (inactive).

For `COc1ccc2[nH]cc(CN3CCC(CO)(c4ccccc4)CC3)c2c1`, the GI50 [1] was 15.3 µM (inactive), the GI50 [2] was 45.8 µM (inactive) and the GI50 [3] was 22.5 µM (inactive). For the same compound, the GI50 [4] was 20.2 µM (inactive), the GI50 [5] was 78.9 µM (inactive) and the GI50 [7] was 21.6 µM (inactive). For the same compound, the GI50 [8] was 18.3 µM (inactive), the GI50 [9] was 45.2 µM (inactive) and the GI50 [10] was 8.28 µM (inactive). The GI50 [11] was 21 µM (inactive), the GI50 [12] was 15 µM (inactive) and the GI50 [13] was 35.1 µM. The GI50 [14] was 18.7 µM (inactive), the GI50 [15] was 19.7 µM (inactive) and the GI50 [17] was 23.1 µM (inactive). For the same compound, the GI50 [18] was 25.7 µM (inactive), the GI50 [19] was 38.5 µM (inactive) and the GI50 [20] was 17.6 µM (inactive). For the same compound, the GI50 [21] was 17.9 µM (inactive), the GI50 [22] was 16.8 µM (inactive) and the GI50 [23] was 17.3 µM (inactive). The GI50 [24] was 20.8 µM (inactive), the GI50 [25] was 26.7 µM (inactive) and the GI50 [26] was 20.6 µM (inactive). For the same compound, the GI50 [27] was 18.7 µM (inactive), the GI50 [28] was 21 µM (inactive) and the GI50 [29] was 25.8 µM (inactive). The GI50 [58] was 43.5 µM (inactive), the GI50 [30] was 91.6 µM (inactive) and the GI50 [31] was 30 µM (inactive). For the same compound, the GI50 [59] was 18.9 µM (inactive), the GI50 [32] was > 100 µM (inactive) and the GI50 [33] was 48.2 µM (inactive). For the same compound, the GI50 [34] was 42.2 µM (inactive), the GI50 [35] was 68.5 µM (inactive) and the GI50 [36] was 52.7 µM (inactive). For the same compound, the GI50 [37] was 31.1 µM (inactive), the GI50 [38] was 22.6 µM (inactive) and the GI50 [39] was 71.4 µM (inactive). For the same compound, the GI50 [40] was 11.9 µM (inactive), the GI50 [41] was 16.1 µM (inactive) and the GI50 [43] was 17.9 µM (inactive). For the same compound, the GI50 [44] was 23.2 µM (inactive), the GI50 [45] was 14.1 µM (inactive) and the GI50 [46] was 0.53 µM (active). For the same compound, the GI50 [47] was 72.8 µM (inactive), the GI50 [48] was > 100 µM (inactive) and the GI50 [49] was 27 µM (inactive). For the same compound, the GI50 [50] was 22.1 µM (inactive), the GI50 [51] was 21.2 µM (inactive) and the GI50 [52] was 20.9 µM (inactive). For the same compound, the GI50 [53] was 95.9 µM (inactive), the GI50 [54] was 30.3 µM (inactive) and the GI50 [55] was 17.5 µM (inactive). For the same compound, the GI50 [56] was 25.9 µM (inactive) and the GI50 [57] was 22.4 µM (inactive).
